Laboratory results published in patent US8258130B2 (Sanofi, priority 2007, dated 2012).

Biological target: human h-PGDS (Homo sapiens, UniProt O60760)
Assay: Enzyme Immunoassay (EIA) method, inhibition of hematopoietic PGD2 synthase
Assay type: biochemical
Settings: EIA assay, PGD2 formed from PGH2 by human h-PGDS
Procedure: Assay 2: Enzyme Immunoassay (EIA) Method
• a. Preparation of 0.1M K2HPO4/KH2PO4 buffer (pH 7.4) • Prepare 0.1 M KH2PO4 from 1M KH2PO4 (Sigma, Cat# P-8709) • Prepare 0.1 M K2HPO4 from powder of K2HPO4 (Fisher, BP363-500) • Mix 0.1 M K2HPO4 with 0.1 M KH2PO4 to adjust pH to 7.4. • b. Preparation of 0.5% γ-globulin • Add 0.1 g of γ-globulin (Sigma, Cat# G-5009) to 20 mL 0.1 M K2HPO4/KH2PO4 buffer (pH 7.4) and make 1-mL/vial aliquots and store in −80° C. • c. Preparation of 100 mM GSH • Add 307 mg of GSH (Sigma, Cat# G-6529) to 10 mL 0.1 M K2HPO4/KH2PO4 buffer (pH 7.4) and store at −80° C. • d. Preparation of Reaction buffer: • 198 mL of 0.1M K2HPO4/KH2PO4 buffer (pH 7.4) • 2 mM GSH—Prepared from 100 mM GSH • 0.4 g Glycerol • 2 mL of 0.5% γ-globulin • Add 0.4 g of glycerol and 2 mL of 0.5% γ-globulin to 198 mL of 0.1 M K2HPO4/KH2PO4 • buffer (pH7.4). • Add 0.4 mL of 100 mM GSH to 19.6 mL reaction buffer before the assay (enough for two 96-well plates). • e. Preparation of FeCl2/citric acid stopping solution: (8 mg/mL FeCl2, 0.1 M citric acid) • Add 40 mg fresh FeCl2 (IGN, Cat# 158046) to 5 mL 0.1 M citric acid (Sigma, Cat# C0759). • f. Preparation of MOX reagent: • 10% EtOH—Add 1 mL of EtOH to 9 mL of ultra pure H2O • Dissolve 0.1 g of methoxyl amine (Cayman, Cat# 400036/) in 10% EtOH (10 mL). • Add 0.82 g of sodium acetate (Cayman, Cat#400037) to MOX solution and dissolve. II. Materials and Method • Dimethylsulfoxide (DMSO; Sigma; Cat# D2650) • Prostaglandin D2-MOX express EIA kit (Caymen Chemical, Catalog No. 500151)
Before the assay, cool down 10 mL of acetone in polypropylene tubes and empty 96 well plates in ice. All the procedures except compound dilution are performed on ice.
• 1. Dilute compound in DMSO
• 2. Dilute 2 μL of each above concentration of compound to 38 μL of reaction buffer in 96-well plates and mix. IV. Enzyme and Substrate Solution Preparation • 1 Preparation of 0.39 ng/μL enzyme solution (0.35 ng/μL at final after compound addition). • Mix 4 μL of 4 mg/mL human h-PGDS with 396 μL of reaction buffer (to give enzyme concentration 40 μg/mL). Add 46.8 μL of 40 μg/mL h-PGDS to 4.753 mL of reaction buffer to give a total volume of 4.8 mL • 2. Preparation of Substrate Solution (PGH2): Add 0.375 mL of 0.1 mg/mL of PGH2 to 1.625 mL acetone. V. Enzyme Reaction: • 1. Add 60 μL of enzyme solution to compound well and positive control (without compound) in U-bottom polypropylene plate on ice. • 2. Add 60 μL of reaction buffer and 6.6 μL of 5% DMSO in reaction buffer into negative control wells in the plate. • 3. Add 6.6 μL of diluted compound in reaction buffer to the compound wells and mix. • 4. Add 6.6 μL of 5% DMSO in reaction buffer to the positive control well. • 5. Incubate the plate in ice for at least 30 min. • 6. Add 20 μL of substrate (PGH2) solution to compound, negative and positive control wells in the U-bottom 96 well plate on ice. • 7. Dry the plate in cold room for about 25-28 min. • 8. Pipette 45 μL of enzyme solution (above) into 96-wells with dried PGH2 and mix 3 times. Incubate on the ice for 1 min. • 9. Add 45 μL of FeCl2 solution into each wells and mix. • 10. Add 90 μL of MOX solution and mix. • 11. Incubate for 30 min at 60° C. • 12. Dilute the samples 2500× with EIA buffer. VI. EIA Assay • Perform the assay according to the procedure in EIA kit provided by Cayman. Total PGD2 levels (pg/mL) were determined in the samples by EIA kits (Caymen Chemical, Catalog No. 500151) Calculate Amount of PGD2 as Below • Calculated % Positive control according to the equation below; % Positive control=(Compound value−Negative control)/(Positive value−Negative control value)×100. […]

Chain of human h-PGDS (O60760 whole entry): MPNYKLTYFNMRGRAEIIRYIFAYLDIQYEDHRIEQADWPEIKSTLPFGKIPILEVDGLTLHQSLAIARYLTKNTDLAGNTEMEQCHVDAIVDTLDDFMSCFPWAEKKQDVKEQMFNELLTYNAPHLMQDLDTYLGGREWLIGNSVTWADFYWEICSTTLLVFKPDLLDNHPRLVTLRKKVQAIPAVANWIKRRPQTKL

| SMILES | IC50 |
| --- | --- |
| O=C(NN1CCOCC1)c1cnc(C(=O)c2ccccc2)nc1 [Example 50, 2-Benzoyl-pyrimidine-5-carboxylic acid morpholin-4-ylamide] | 0.342 µM |
| O=C(NN1CCCCC1)c1cnc(-c2cccc(F)c2)nc1 [Example 92, 2-(3-Fluoro-phenyl)-pyrimidine-5-carboxylic acid piperadin-1-yl-amide] | 0.0195 µM |
| O=C(NN1CCOc2ccc(F)cc21)c1cnc(-c2ccccc2)nc1 [Example 212, 2-Phenyl-pyrimidine-5-carboxylic acid (6-fluoro-2,3-dihydro-1,4-benzoxazin-4-yl)-amide] | 0.021 µM |
| Cc1nc(-c2cccc(F)c2)ncc1C(=O)Nn1ccc2ccncc21 [Example 128, 2-(3-Fluoro-phenyl)-4-methyl-pyrimidine-5-carboxylic acid pyrrolo[2,3-c]pyridin-1-ylamide] | 0.0285 µM |
| Cc1nc(-c2nccs2)ncc1C(=O)Nn1cc(CCC(C)(C)O)c2cc(F)ccc21 [Example 172, 4-Methyl-2-thiazol-2-yl-pyrimidine-5-carboxylic acid [5-fluoro-3-(3-hydroxy-3-methyl-butyl)-indol-1-yl]-amide] | 0.005 µM |
| Cc1nc(-c2ccccn2)ncc1C(=O)Nn1cc(C)c2cc(F)ccc21 [Example 3, 4-Methyl-2-pyridin-2-yl-pyrimidine-5-carboxylic acid (5-fluoro-3-methyl-indol-1-yl)amide] | 0.007 µM |
| O=C(Nn1cnnc1)c1cnc(-c2ccccc2)nc1 [Example 43, 2-Phenyl-pyrimidine-5-carboxylic acid [1,2,4]triazol-4-ylamide] | 0.263 µM |
| CS(=O)(=O)c1ccc2ccn(NC(=O)c3cnc(-c4cccc(F)c4)nc3)c2c1 [Example 113, 2-(3-Fluoro-phenyl)-pyrimidine-5-carboxylic acid (6-methanesulfonyl-indol-1-yl)-amide] | 0.008 µM |
| Cc1nc(-c2ccccn2)ncc1C(=O)Nn1ccc2cc(F)ccc21 [Example 123, 4-Methyl-2-pyridin-2-yl-pyrimidine-5-carboxylic acid (5-fluoro-indol-1-yl)-amide] | 0.017 µM |
| CCc1cn(NC(=O)c2cnc(-c3cccc(F)c3)nc2C)c2cnccc12 [Example 195, 2-(3-Fluoro-phenyl)-4-methyl-pyrimidine-5-carboxylic acid (3-ethyl-pyrrolo[2,3c]pyridin-1-yl)-amide] | 0.007 µM |
| Cc1nc(-c2ccccn2)ncc1C(=O)Nn1ccc2ncccc21 [Example 127, 4-Methyl-2-pyridin-2-yl-pyrimidine-5-carboxylic acid pyrrolo[3,2-b]pyridin-1-ylamide] | 0.013 µM |
| O=C(Nn1ccc2ccccc21)c1cnc(-c2ccccn2)nc1 [Example 104, 2-Pyridin-2-yl-pyrimidine-5-carboxylic acid indol-1-yl-amide] | 0.0045 µM |
| Cc1nc(-c2ccccn2)ncc1C(=O)Nn1ccc2ccccc21 [Example 111, 4-Methyl-2-pyridin-2-yl-pyrimidine-5-carboxylic acid indol-1-ylamide] | 0.005 µM |
| Cc1nc(-c2ccccn2)ncc1C(=O)Nn1c(C)cc2cc(F)ccc21 [Example 12, 4-Methyl-2-pyridin-2-yl-pyrimidine-5-carboxylic acid (5-fluoro-2-methyl-indol-1-yl)-amide] | 0.008 µM |
| Cc1cc2ccccc2n1NC(=O)c1cnc(-c2cccc(F)c2)nc1 [Example 108, 2-(3-Fluoro-phenyl)-pyrimidine-5-carboxylic acid (2-methyl-indol-1-yl)-amide] | 0.006 µM |
| O=C(NN1CCOC1=O)c1cnc(-c2ccccc2)nc1 [Example 77, 2-Phenyl-pyrimidine-5-carboxylic acid (2-oxo-oxazolidin-3-yl)-amide] | 0.049 µM |

More lines, now with the values ahead:

| IC50 | SMILES |
| --- | --- |
| 0.018 µM | O=C(Nn1ccc2cc(F)ccc21)c1cnc(-c2ccccn2)nc1 [Example 124, 2-Pyridin-2-yl-pyrimidine-5-carboxylic acid (5-fluoro-indol-1-yl)-amide] |
| 0.262 µM | Cc1cn(NC(=O)c2cnc(-c3cccc(C(F)(F)F)c3)nc2)c2ccc(F)cc12 [Example 227, 2-(3-Trifluoromethyl-phenyl)-pyrimidine-5-carboxylic acid (5-fluoro-3-methyl-indol-1-yl)-amide] |
| 0.014 µM | Cc1nc(-c2cccnc2)ncc1C(=O)Nn1ccc2ncccc21 [Example 130, 4-Methyl-2-pyridin-3-yl-pyrimidine-5-carboxylic acid pyrrolo[3,2-b]pyridin-1-ylamide] |
| 0.055 µM | O=C(NN1CCOCC1=O)c1cnc(-c2ccccc2)nc1 [Example 47, 2-Phenyl-pyrimidine-5-carboxylic acid (3-oxo-morpholin-4-yl)-amide] |
| 0.003 µM | Cc1nc(-c2ccccn2)ncc1C(=O)NN1CCc2ccccc21 [Example 110, 4-Methyl-2-pyridin-2-yl-pyrimidine-5-carboxylic acid (2,3-dihydro-indol-1-yl)-amide] |
| 0.003 µM | O=C(Nn1ccc2cc(F)ccc21)c1cnc(-c2ccccc2)nc1 [Example 102, 2-Phenyl-pyrimidine-5-carboxylic acid (5-fluoro-indol-1-yl)-amide] |
| 0.007 µM | Cc1nc(-c2cccc(F)c2)ncc1C(=O)Nn1cc(C(C)(C)C(=O)O)c2cc(F)ccc21 [Example 164, 2-(5-Fluoro-1-{[2-(3-fluoro-phenyl)-4-methyl-pyrimidine-5-carbonyl]-amino}-1H-indol-3-yl)-2-methyl-propionic acid] |
| 0.461 µM | Cc1nc(-c2ncc(C(=O)NN3CCN(CCO)CC3)cn2)no1 [Example 48, 2-(5-Methyl-[1,2,4]oxadiazol-3-yl)-pyrimidine-5-carboxylic acid [4-(2-hydroxy-ethyl)-piperazin-1-yl]-amide] |
| 0.012 µM | Cc1nc(-c2cccc(F)c2)ncc1C(=O)Nn1ccc2cccnc21 [Example 122, 2-(3-Fluoro-phenyl)-4-methyl-pyrimidine-5-carboxylic acid pyrrolo[2,3-b]pyridin-1-ylamide] |
| 0.006 µM | COc1ccc2c(ccn2NC(=O)c2cnc(-c3cccc(F)c3)nc2C)c1 [Example 133, 2-(3-Fluoro-phenyl)-4-methyl-pyrimidine-5-carboxylic acid (5-methoxy-indol-1-yl)-amide] |
| 0.057 µM | O=C(NN1CCN(C(=O)C(F)(F)F)CC1)c1cnc(-c2ccccc2)nc1 [Example 88, 2-Phenyl-pyrimidine-5-carboxylic acid [4-(2,2,2-trifluoro-acetyl)-piperazin-1-yl]-amide] |
| 0.017 µM | Cc1cn(NC(=O)c2cnc(-c3cccc(C(F)F)c3)nc2)c2ccc(F)cc12 [Example 226, 2-(3-Difluoromethyl-phenyl)-pyrimidine-5-carboxylic acid (5-fluoro-3-methyl-indol-1-yl)-amide] |
| 0.023 µM | Cc1nc(-c2cccc(F)c2)ncc1C(=O)NN1CCc2ccccc21 [Example 106, 2-(3-Fluoro-phenyl)-4-methyl-pyrimidine-5-carboxylic acid (2,3-dihydro-indol-1-yl)-amide] |
